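Assay format: 96-well plates, 48-hour exposure. At the GI50, growth is halved. At the TGI there is no net growth.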
How the values were obtained:
Assay in all cases: inhibition of tumour cell growth, NCI panel, 48 h
786-0 renal = test system: 786-0 renal
A498 renal = test system: A498 renal
A549 NSCLC = test system: A549 NSCLC
ACHN renal = test system: ACHN renal
BT-549 breast = test system: BT-549 breast
CAKI-1 renal = test system: CAKI-1 renal
CCRF-CEM leukemia = test system: CCRF-CEM leukemia
COLO 205 colon = test system: COLO 205 colon
DU-145 prostate = test system: DU-145 prostate
EKVX NSCLC = test system: EKVX NSCLC
HCC-2998 colon = test system: HCC-2998 colon
HCT-116 colon = test system: HCT-116 colon
HCT-15 colon = test system: HCT-15 colon
HL-60(TB) leukemia = test system: HL-60(TB) leukemia
HOP-62 NSCLC = test system: HOP-62 NSCLC
HOP-92 NSCLC = test system: HOP-92 NSCLC
HS 578T breast = test system: HS 578T breast
HT29 colon = test system: HT29 colon
IGROV1 ovarian = test system: IGROV1 ovarian
K-562 leukemia = test system: K-562 leukemia
KM12 colon = test system: KM12 colon
LOX IMVI melanoma = test system: LOX IMVI melanoma
M14 melanoma = test system: M14 melanoma
MALME-3M melanoma = test system: MALME-3M melanoma
MCF7 breast = test system: MCF7 breast
MDA-MB-231 breast = test system: MDA-MB-231 breast
MDA-MB-435 = test system: MDA-MB-435
MDA-MB-468 breast = test system: MDA-MB-468 breast
MOLT-4 leukemia = test system: MOLT-4 leukemia
NCI-H226 lung = test system: NCI-H226 lung
NCI-H23 lung = test system: NCI-H23 lung
NCI-H460 lung = test system: NCI-H460 lung
NCI-H522 lung = test system: NCI-H522 lung
NCI/ADR-RES ovarian = test system: NCI/ADR-RES ovarian
OVCAR-3 ovarian = test system: OVCAR-3 ovarian
OVCAR-4 ovarian = test system: OVCAR-4 ovarian
OVCAR-5 ovarian = test system: OVCAR-5 ovarian
OVCAR-8 ovarian = test system: OVCAR-8 ovarian
PC-3 prostate = test system: PC-3 prostate
RPMI-8226 leukemia = test system: RPMI-8226 leukemia
RXF 393 renal = test system: RXF 393 renal
SF-268 CNS = test system: SF-268 CNS
SF-295 CNS = test system: SF-295 CNS
SF-539 CNS = test system: SF-539 CNS
SK-MEL-2 melanoma = test system: SK-MEL-2 melanoma
SK-MEL-28 melanoma = test system: SK-MEL-28 melanoma
SK-MEL-5 melanoma = test system: SK-MEL-5 melanoma
SK-OV-3 ovarian = test system: SK-OV-3 ovarian
SN12C renal = test system: SN12C renal
SNB-19 CNS = test system: SNB-19 CNS
SNB-75 CNS = test system: SNB-75 CNS
SR leukemia = test system: SR leukemia
SW-620 colon = test system: SW-620 colon
T-47D breast = test system: T-47D breast
TK-10 renal = test system: TK-10 renal
U251 CNS = test system: U251 CNS
UACC-257 melanoma = test system: UACC-257 melanoma
UACC-62 melanoma = test system: UACC-62 melanoma
UO-31 renal = test system: UO-31 renal

O=C(N/N=C/c1c[nH]c2ccccc12)Nc1ccc(F)c(Cl)c1
GI50 (786-0 renal): 1.37 µM
TGI (786-0 renal): 3.27 µM
GI50 (A498 renal): 15.4 µM
TGI (A498 renal): 30.2 µM
GI50 (A549 NSCLC): 12.7 µM
TGI (A549 NSCLC): 26.3 µM
GI50 (ACHN renal): 14.6 µM
TGI (ACHN renal): 27.7 µM
GI50 (BT-549 breast): 0.312 µM
TGI (BT-549 breast): 1.54 µM
GI50 (CAKI-1 renal): 14.8 µM
TGI (CAKI-1 renal): 28 µM
GI50 (CCRF-CEM leukemia): 0.604 µM
TGI (CCRF-CEM leukemia): 11.7 µM
GI50 (COLO 205 colon): 14.1 µM
TGI (COLO 205 colon): 27.1 µM
GI50 (DU-145 prostate): 14.4 µM
TGI (DU-145 prostate): 27.4 µM
GI50 (EKVX NSCLC): 13.8 µM
TGI (EKVX NSCLC): 28.6 µM
GI50 (HCC-2998 colon): 11.7 µM
TGI (HCC-2998 colon): 23.9 µM
GI50 (HCT-116 colon): 1.49 µM
TGI (HCT-116 colon): 2.84 µM
GI50 (HCT-15 colon): 5.13 µM
TGI (HCT-15 colon): 17.9 µM
GI50 (HL-60(TB) leukemia): 3.44 µM
TGI (HL-60(TB) leukemia): 18.8 µM
GI50 (HOP-62 NSCLC): 13.1 µM
TGI (HOP-62 NSCLC): 25.8 µM
GI50 (HOP-92 NSCLC): 2.04 µM
TGI (HOP-92 NSCLC): 6.59 µM
GI50 (HS 578T breast): 13.7 µM
TGI (HS 578T breast): 39.7 µM
GI50 (HT29 colon): 12.7 µM
TGI (HT29 colon): 25.3 µM
GI50 (IGROV1 ovarian): 7.6 µM
TGI (IGROV1 ovarian): 21.7 µM
GI50 (K-562 leukemia): 1.86 µM
TGI (K-562 leukemia): 17.4 µM
GI50 (KM12 colon): 8.76 µM
TGI (KM12 colon): 21 µM
GI50 (LOX IMVI melanoma): 11.2 µM
TGI (LOX IMVI melanoma): 23.2 µM
GI50 (M14 melanoma): 1.57 µM
TGI (M14 melanoma): 3.44 µM
GI50 (MALME-3M melanoma): 12.6 µM
TGI (MALME-3M melanoma): 25.1 µM
GI50 (MCF7 breast): 6.47 µM
TGI (MCF7 breast): 23.1 µM
GI50 (MDA-MB-231 breast): 11.8 µM
TGI (MDA-MB-231 breast): 24 µM
GI50 (MDA-MB-435): 3.35 µM
TGI (MDA-MB-435): 12.6 µM
GI50 (MDA-MB-468 breast): 1.98 µM
TGI (MDA-MB-468 breast): 7.74 µM
GI50 (MOLT-4 leukemia): 1.44 µM
TGI (MOLT-4 leukemia): 11.8 µM
GI50 (NCI-H226 lung): 10.3 µM
TGI (NCI-H226 lung): 34.7 µM
GI50 (NCI-H23 lung): 13.5 µM
TGI (NCI-H23 lung): 27.2 µM
GI50 (NCI-H460 lung): 13 µM
TGI (NCI-H460 lung): 26.3 µM
GI50 (NCI-H522 lung): 1.68 µM
TGI (NCI-H522 lung): 8.35 µM
GI50 (NCI/ADR-RES ovarian): 6.05 µM
TGI (NCI/ADR-RES ovarian): 25 µM
GI50 (OVCAR-3 ovarian): 11.5 µM
TGI (OVCAR-3 ovarian): 23.6 µM
GI50 (OVCAR-4 ovarian): 12.8 µM
TGI (OVCAR-4 ovarian): 28.7 µM
GI50 (OVCAR-5 ovarian): 13.5 µM
TGI (OVCAR-5 ovarian): 26.3 µM
GI50 (OVCAR-8 ovarian): 14.3 µM
TGI (OVCAR-8 ovarian): 31.6 µM
GI50 (PC-3 prostate): 3.12 µM
TGI (PC-3 prostate): 14.5 µM
GI50 (RPMI-8226 leukemia): 1.48 µM
TGI (RPMI-8226 leukemia): 9.26 µM
GI50 (RXF 393 renal): 3.97 µM
TGI (RXF 393 renal): 15.5 µM
GI50 (SF-268 CNS): 8.09 µM
TGI (SF-268 CNS): 20.9 µM
GI50 (SF-295 CNS): 14.4 µM
TGI (SF-295 CNS): 27.4 µM
GI50 (SF-539 CNS): 10.1 µM
TGI (SF-539 CNS): 21.6 µM
GI50 (SK-MEL-2 melanoma): 10.7 µM
TGI (SK-MEL-2 melanoma): 22.6 µM
GI50 (SK-MEL-28 melanoma): 12.5 µM
TGI (SK-MEL-28 melanoma): 25 µM
GI50 (SK-MEL-5 melanoma): 8.65 µM
TGI (SK-MEL-5 melanoma): 20.8 µM
GI50 (SK-OV-3 ovarian): 12.9 µM
TGI (SK-OV-3 ovarian): 26.8 µM
GI50 (SN12C renal): 11.2 µM
TGI (SN12C renal): 23.2 µM
GI50 (SNB-19 CNS): 14.9 µM
TGI (SNB-19 CNS): 28.1 µM
GI50 (SNB-75 CNS): 11.8 µM
TGI (SNB-75 CNS): 24 µM
GI50 (SR leukemia): 2.2 µM
TGI (SR leukemia): 13.3 µM
GI50 (SW-620 colon): 10.9 µM
TGI (SW-620 colon): 22.8 µM
GI50 (T-47D breast): 11.5 µM
TGI (T-47D breast): 32 µM
GI50 (TK-10 renal): 22.8 µM
TGI (TK-10 renal): 44.3 µM
GI50 (U251 CNS): 13.3 µM
TGI (U251 CNS): 26 µM
GI50 (UACC-257 melanoma): 13.6 µM
TGI (UACC-257 melanoma): 26.4 µM
GI50 (UACC-62 melanoma): 10.8 µM
TGI (UACC-62 melanoma): 22.6 µM
GI50 (UO-31 renal): 5.01 µM
TGI (UO-31 renal): 19.4 µM
